For 16 compounds, IC50 results are on record in patent US7074789B2, “Kinase inhibitors” (Amgen Inc., priority 1999, dated 2006).

“And” between values parts separate entries of the source, which are not always exact repeats. Equal entries are not always repeated.

Type in all cases: biochemical
One experiment concerns the target T1, Tek (Homo sapiens, UniProt Q02763).
T1 construct: Kinases are expressed as either kinase domains or full length constructs; made in house
Nature of the experiment: Kinase inhibition assay (33P transfer), Tek. The settings on record: read-out: Tek-1. The procedure, abridged: (§1)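 GST/His-fusion kinases, E. coli or High Five expressed, affinity purified; 33P-ATP, plate-coated poly(Glu,Tyr) 4:1 or poly(Arg,Ser) 3:1; 0.5% H3PO4 wash, scintillant, LSC.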

For a further experiment, the target named is T2, Kdr (Homo sapiens, UniProt P35968).
T2 construct: Kinases are expressed as either kinase domains or full length constructs; made in house
Nature of the experiment: Kinase inhibition assay (33P transfer), Kdr. The settings on record: Table 3; read-out: KDR-1. Put shortly: (§2)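 33P-ATP transfer to coated synthetic polymer substrates; acid wash (0.5% H3PO4), scintillant, liquid scintillation count. Enzymes: His- or GST-fusion kinases from E. coli or High Five insect cells.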

For a further experiment, the target named is T3, AKT (Homo sapiens, UniProt Q9Y243).
T3 construct: Kinases are expressed as either kinase domains or full length constructs; made in house
T3 sequence (Q9Y243 whole entry, the tested form may be a part): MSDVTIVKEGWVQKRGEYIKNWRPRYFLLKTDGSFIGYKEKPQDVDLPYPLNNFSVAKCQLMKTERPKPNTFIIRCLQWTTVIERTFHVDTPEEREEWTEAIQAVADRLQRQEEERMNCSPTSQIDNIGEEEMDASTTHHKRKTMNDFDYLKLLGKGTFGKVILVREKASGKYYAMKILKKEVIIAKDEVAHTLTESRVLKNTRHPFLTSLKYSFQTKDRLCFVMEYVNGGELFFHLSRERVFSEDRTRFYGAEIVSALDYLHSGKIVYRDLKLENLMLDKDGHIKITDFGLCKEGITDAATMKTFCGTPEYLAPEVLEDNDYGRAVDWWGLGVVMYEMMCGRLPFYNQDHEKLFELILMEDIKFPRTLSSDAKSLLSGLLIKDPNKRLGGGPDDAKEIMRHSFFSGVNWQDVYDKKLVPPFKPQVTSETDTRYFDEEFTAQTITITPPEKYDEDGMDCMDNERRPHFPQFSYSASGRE
Nature of the experiment: Kinase inhibition assay (33P transfer), AKT. The note with it: Table 2, kinase inhibition class; read-out: AKT3-1. Put shortly: as §2

In a further experiment the target is T4, EGFR (Homo sapiens, UniProt P00533).
T4 construct: Kinases are expressed as either kinase domains or full length constructs; made in house
T4 sequence (P00533 25-1210, species assumed): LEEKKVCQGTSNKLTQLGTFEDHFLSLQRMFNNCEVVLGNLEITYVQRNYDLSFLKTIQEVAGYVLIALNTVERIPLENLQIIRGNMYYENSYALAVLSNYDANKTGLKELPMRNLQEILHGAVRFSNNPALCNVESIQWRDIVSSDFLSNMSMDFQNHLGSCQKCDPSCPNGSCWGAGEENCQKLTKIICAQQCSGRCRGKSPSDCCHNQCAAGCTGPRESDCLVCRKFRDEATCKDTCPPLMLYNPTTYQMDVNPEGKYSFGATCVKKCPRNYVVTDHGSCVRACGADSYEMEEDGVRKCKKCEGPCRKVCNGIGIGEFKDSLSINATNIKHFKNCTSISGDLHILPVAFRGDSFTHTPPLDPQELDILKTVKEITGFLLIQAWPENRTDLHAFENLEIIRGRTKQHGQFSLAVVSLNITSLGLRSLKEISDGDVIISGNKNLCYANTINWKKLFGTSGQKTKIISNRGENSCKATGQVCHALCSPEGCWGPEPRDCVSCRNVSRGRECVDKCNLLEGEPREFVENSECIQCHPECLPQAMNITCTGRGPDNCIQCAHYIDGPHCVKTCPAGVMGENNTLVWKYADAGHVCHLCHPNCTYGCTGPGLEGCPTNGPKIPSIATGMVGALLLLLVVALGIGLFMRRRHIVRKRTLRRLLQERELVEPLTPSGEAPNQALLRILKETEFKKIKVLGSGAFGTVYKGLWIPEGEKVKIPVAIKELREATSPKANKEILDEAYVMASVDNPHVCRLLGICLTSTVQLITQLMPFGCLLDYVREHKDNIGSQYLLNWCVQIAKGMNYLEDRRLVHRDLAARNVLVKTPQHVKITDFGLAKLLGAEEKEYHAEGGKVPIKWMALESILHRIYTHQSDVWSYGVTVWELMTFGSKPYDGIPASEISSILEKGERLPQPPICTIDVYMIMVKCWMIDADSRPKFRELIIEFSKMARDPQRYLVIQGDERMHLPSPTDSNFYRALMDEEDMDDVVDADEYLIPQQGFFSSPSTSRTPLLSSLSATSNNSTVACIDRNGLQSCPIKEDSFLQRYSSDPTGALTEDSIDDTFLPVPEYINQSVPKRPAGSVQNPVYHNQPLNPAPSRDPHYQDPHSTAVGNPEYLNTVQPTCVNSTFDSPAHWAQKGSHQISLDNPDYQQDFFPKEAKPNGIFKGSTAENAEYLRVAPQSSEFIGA
The experiment can be described thus: Kinase inhibition assay (33P transfer), EGFR. The settings on record: Table 2, kinase inhibition class; read-out: EGFR-1. The procedure, abridged:
as §1

Another experiment addresses T5, IGFR-1 (Homo sapiens, UniProt P08069).
T5 construct: Kinases are expressed as either kinase domains or full length constructs; made in house
The experiment can be described thus: Kinase inhibition assay (33P transfer), IGFR-1. The settings on record: Table 2, kinase inhibition class.

The target in the next experiment is T6, c-Met (Homo sapiens, UniProt P08581).
T6 construct: Kinases are expressed as either kinase domains or full length constructs; made in house
T6 sequence (P08581 25-1390): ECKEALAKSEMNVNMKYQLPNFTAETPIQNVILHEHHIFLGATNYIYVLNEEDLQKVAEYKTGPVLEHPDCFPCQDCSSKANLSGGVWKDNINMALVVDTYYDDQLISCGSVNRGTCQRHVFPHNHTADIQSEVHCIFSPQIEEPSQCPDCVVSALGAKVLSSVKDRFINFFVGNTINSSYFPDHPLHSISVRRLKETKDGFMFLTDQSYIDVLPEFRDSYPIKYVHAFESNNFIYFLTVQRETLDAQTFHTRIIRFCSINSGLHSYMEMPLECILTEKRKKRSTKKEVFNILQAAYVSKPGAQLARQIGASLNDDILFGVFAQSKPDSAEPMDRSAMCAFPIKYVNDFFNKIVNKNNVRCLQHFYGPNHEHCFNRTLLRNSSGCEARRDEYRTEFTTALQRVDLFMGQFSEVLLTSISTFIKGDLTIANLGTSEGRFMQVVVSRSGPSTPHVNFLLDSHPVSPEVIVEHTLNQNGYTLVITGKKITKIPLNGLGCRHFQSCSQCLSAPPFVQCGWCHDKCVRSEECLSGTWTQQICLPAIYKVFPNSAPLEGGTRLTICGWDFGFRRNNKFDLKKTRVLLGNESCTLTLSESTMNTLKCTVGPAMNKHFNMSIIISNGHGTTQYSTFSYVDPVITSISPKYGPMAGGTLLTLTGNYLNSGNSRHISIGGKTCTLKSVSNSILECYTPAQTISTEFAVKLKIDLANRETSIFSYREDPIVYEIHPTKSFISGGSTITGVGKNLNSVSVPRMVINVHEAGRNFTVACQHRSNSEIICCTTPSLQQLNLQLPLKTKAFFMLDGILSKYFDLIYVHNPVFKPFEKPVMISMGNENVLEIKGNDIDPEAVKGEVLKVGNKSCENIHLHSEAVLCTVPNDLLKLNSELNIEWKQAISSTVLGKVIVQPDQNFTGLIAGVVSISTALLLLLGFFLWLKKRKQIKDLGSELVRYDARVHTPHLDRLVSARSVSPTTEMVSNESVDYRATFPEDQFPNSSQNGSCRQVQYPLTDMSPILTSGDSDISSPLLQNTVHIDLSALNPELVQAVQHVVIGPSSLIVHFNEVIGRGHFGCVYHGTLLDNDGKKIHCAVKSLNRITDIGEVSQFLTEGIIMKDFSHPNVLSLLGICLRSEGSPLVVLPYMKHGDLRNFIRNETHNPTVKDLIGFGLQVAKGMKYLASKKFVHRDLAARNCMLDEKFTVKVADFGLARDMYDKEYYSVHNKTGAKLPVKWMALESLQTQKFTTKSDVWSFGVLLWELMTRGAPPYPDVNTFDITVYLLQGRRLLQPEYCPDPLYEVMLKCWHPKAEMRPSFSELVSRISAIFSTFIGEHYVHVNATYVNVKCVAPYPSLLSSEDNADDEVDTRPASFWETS
Nature of the experiment: Kinase inhibition assay (33P transfer), c-Met. The settings on record: Table 2, kinase inhibition class; read-out: Met-1. The procedure, abridged:
as §1

Another experiment addresses T7, Zap-70 (Homo sapiens, UniProt P43403).
T7 construct: Kinases are expressed as either kinase domains or full length constructs; made in house
T7 sequence (P43403 1-619): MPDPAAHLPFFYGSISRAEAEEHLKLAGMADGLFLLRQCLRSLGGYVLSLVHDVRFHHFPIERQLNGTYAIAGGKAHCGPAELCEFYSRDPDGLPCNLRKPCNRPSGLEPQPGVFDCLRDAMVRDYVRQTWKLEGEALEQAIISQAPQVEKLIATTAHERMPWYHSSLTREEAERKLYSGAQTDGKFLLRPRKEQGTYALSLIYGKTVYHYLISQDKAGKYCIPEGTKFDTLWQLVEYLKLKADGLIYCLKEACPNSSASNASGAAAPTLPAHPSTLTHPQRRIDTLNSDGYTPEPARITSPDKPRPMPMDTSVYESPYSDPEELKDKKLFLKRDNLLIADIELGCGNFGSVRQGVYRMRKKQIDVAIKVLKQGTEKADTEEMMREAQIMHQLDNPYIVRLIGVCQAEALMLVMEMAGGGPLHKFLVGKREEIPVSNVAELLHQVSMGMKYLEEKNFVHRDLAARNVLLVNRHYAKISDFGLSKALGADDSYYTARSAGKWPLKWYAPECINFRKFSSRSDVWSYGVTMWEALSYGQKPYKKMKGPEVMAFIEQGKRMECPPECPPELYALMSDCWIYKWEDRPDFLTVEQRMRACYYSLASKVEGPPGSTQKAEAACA
The experiment can be described thus: Kinase inhibition assay (33P transfer), Zap-70. The settings on record: Table 3; read-out: Zap-1. Put shortly: as §2

A further experiment concerns the target T8, Lck (Homo sapiens, UniProt P06239).
T8 construct: Kinases are expressed as either kinase domains or full length constructs; made in house
The experiment can be described thus: Kinase inhibition assay (33P transfer), Lck. The settings on record: Table 3; read-out: Lck-1. Put shortly:
as §2

A further experiment concerns the target T9, Itk (Homo sapiens, UniProt Q08881).
T9 construct: Kinases are expressed as either kinase domains or full length constructs; made in house
T9 sequence (Q08881 1-620): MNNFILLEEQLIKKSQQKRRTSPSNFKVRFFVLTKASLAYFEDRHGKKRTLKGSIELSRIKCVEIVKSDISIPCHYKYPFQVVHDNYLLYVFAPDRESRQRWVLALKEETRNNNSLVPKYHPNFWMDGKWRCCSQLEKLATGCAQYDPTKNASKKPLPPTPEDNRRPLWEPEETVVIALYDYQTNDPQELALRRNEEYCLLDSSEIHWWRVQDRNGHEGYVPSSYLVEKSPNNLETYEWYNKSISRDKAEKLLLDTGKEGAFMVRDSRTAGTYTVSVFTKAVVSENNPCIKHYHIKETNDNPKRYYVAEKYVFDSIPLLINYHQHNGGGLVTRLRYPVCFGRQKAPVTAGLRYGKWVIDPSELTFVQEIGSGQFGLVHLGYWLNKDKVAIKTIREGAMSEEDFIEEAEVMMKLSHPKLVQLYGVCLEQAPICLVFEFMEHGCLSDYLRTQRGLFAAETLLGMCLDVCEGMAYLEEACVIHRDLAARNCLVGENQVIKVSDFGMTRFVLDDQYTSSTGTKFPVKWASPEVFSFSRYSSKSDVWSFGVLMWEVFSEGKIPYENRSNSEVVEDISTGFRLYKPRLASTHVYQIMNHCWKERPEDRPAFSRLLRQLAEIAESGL
The experiment can be described thus: Kinase inhibition assay (33P transfer), Itk. The note with it: Table 3; read-out: Itk-1. The procedure, abridged:
as §1

T5 sequence (P08069 31-1367): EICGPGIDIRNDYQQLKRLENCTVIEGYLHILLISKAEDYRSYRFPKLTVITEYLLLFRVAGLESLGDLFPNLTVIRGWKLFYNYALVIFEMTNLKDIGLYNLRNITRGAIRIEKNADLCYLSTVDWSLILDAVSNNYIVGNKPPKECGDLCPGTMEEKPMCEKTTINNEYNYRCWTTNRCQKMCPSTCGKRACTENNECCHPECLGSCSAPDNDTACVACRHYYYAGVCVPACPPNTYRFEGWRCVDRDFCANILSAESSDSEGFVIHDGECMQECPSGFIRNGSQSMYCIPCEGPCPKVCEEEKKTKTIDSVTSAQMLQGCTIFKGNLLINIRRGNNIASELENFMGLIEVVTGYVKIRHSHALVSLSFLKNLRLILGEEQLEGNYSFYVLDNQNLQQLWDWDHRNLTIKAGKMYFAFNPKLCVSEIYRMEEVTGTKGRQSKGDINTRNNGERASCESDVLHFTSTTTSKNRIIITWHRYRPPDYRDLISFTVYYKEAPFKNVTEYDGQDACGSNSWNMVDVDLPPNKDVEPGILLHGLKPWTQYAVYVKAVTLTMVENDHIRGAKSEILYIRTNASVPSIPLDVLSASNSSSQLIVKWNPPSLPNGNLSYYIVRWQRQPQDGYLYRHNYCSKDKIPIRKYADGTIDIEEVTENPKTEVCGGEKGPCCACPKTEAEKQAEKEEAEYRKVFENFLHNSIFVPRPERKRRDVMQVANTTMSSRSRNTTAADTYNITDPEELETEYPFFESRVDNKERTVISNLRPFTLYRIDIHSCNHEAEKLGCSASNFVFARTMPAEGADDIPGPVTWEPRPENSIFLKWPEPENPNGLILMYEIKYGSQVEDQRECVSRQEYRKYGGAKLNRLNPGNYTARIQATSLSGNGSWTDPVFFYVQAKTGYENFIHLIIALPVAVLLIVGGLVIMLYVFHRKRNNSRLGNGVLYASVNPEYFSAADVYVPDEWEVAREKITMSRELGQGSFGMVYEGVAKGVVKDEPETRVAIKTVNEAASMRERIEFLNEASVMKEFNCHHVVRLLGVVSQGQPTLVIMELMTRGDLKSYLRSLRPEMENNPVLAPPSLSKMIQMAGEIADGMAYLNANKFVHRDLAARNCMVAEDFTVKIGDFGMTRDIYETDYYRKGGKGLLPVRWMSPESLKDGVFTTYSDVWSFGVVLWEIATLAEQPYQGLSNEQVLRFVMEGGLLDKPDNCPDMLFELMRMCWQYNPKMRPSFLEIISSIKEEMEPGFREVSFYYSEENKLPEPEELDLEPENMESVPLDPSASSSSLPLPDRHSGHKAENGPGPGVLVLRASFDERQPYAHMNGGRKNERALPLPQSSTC
T8 sequence (P06239 whole entry, species assumed, the tested form may be a part): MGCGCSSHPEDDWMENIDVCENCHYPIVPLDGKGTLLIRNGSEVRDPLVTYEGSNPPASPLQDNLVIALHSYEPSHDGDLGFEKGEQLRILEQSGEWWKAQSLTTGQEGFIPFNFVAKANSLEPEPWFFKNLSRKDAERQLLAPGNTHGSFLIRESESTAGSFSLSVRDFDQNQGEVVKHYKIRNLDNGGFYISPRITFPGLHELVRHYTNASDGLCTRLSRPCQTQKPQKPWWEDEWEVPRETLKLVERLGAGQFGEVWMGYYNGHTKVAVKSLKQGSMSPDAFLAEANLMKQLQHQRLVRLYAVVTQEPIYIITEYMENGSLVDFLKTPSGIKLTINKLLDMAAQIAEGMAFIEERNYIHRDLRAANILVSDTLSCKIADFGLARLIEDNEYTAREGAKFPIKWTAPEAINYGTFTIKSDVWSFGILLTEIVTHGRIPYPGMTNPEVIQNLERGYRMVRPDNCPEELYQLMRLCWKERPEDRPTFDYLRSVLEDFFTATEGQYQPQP

Regarding `CC(C)(C)OC(=O)Nc1ccc(Nc2ncnc(-c3ccccc3)n2)cc1` [Compound 19], the IC50 was greater than 12.4 µM at Tek; 6.6 to 9.63 µM on Kdr; greater than 12.4 µM on AKT; greater than 12.4 µM at EGFR; 6.6 to 9.63 µM against IGFR-1; greater than 12.4 µM at c-Met. For the same compound, the IC50 on Zap-70 is 6.6 to 9.63 µM; on Lck it was greater than 12.4 µM; at Itk, greater than 12.4 µM.
For the compound `COc1cccc(Nc2ncnc(-c3ccccc3)n2)c1` [Compound 13], the IC50 on Tek, at Kdr, on AKT, on EGFR, on IGFR-1 and on c-Met was greater than 16.2 µM in each case. Further, the IC50 on Zap-70, on Lck and at Itk was greater than 16.2 µM each time.
Take `COc1cc(Nc2ncnc(-c3ccccc3)n2)cc(OC)c1` [Compound 15]: the IC50 on Tek, on Kdr, at AKT, at EGFR, against IGFR-1 and on c-Met was greater than 14.6 µM in each case. In addition, the IC50 at Zap-70 is 11.4 to 14.6 µM; at Lck, greater than 14.6 µM; at Itk, greater than 14.6 µM.
With `Oc1cccc(Nc2ncnc(-c3ccccc3)n2)c1` [Compound 18], the IC50 at Tek was greater than 17 µM; on Kdr it was 9.08 to 13.2 µM; at AKT, greater than 17 µM; on EGFR, greater than 17 µM; against IGFR-1, greater than 17 µM; on c-Met, greater than 17 µM. Further, the IC50 on Zap-70 is greater than 17 µM; on Lck it was 9.08 to 13.2 µM; at Itk, greater than 17 µM.
Consider `COc1cccc(Nc2ncnc(Nc3ccc(OCc4ccccc4)cc3)n2)c1` [Compound 160], for which the IC50 at Tek is greater than 11.3 µM; at Kdr, greater than 11.3 µM; at AKT, 8.76 to 11.3 µM; at EGFR it was 1 to 6.01 µM; on IGFR-1, greater than 11.3 µM; at c-Met, 8.76 to 11.3 µM. Moreover, the IC50 at Zap-70, on Lck and at Itk was greater than 11.3 µM in each case.
With `COc1ccc(Nc2ncnc(-c3ccccc3)n2)cc1` [Compound 14], the IC50 on Tek, on Kdr, at AKT, on EGFR, against IGFR-1 and at c-Met was greater than 16.2 µM in each case. Moreover, the IC50 was 12.6 to 16.2 µM at Zap-70, greater than 16.2 µM on Lck and greater than 16.2 µM on Itk.
Turning to `COc1ccccc1Nc1ncnc(-c2ccccc2)n1` [Compound 12], the IC50 was greater than 16.2 µM at Tek; 12.6 to 16.2 µM at Kdr; greater than 16.2 µM at AKT; greater than 16.2 µM at EGFR; greater than 16.2 µM on IGFR-1; greater than 16.2 µM on c-Met. Besides, the IC50 on Zap-70, on Lck and at Itk was greater than 16.2 µM throughout.
Take `COc1cc(Nc2ncnc(-n3c(NCC(N)=O)nc4ccccc43)n2)cc(OC)c1OC` [Compound 389]: the IC50 was greater than 9.99 µM at Tek; greater than 9.99 µM on Kdr; greater than 9.99 µM at AKT; greater than 9.99 µM at EGFR; less than 0.888 µM at IGFR-1; greater than 9.99 µM on c-Met. Moreover, the IC50 on Zap-70, at Lck and at Itk was greater than 9.99 µM each time.
For `COc1ccc(Nc2ncnc(Nc3ccc(OCc4ccccc4)cc3)n2)cc1` [Compound 161], the IC50 on Tek is 6.01 to 8.76 µM; on Kdr it was 1 to 6.01 µM; at AKT, 6.01 to 8.76 µM; at EGFR, greater than 11.3 µM; at IGFR-1, greater than 11.3 µM; at c-Met, greater than 11.3 µM. In addition, the IC50 at Zap-70, at Lck and at Itk was greater than 11.3 µM each time.
Take `Oc1ccc(Nc2ncnc(-c3ccccc3)n2)cc1` [Compound 11]: the IC50 at Tek is greater than 17 µM; on Kdr, 1.51 to 9.08 µM; at AKT, greater than 17 µM; on EGFR it was greater than 17 µM; against IGFR-1, greater than 17 µM; at c-Met, greater than 17 µM. Further, the IC50 is greater than 17 µM at Zap-70, 9.08 to 13.2 µM at Lck and greater than 17 µM on Itk.
Consider `Fc1cccc(Nc2ncnc(-c3cccs3)n2)c1` [Compound 1073], for which the IC50 at Kdr, on AKT, on EGFR, against IGFR-1, at c-Met and on Zap-70 was greater than 16.5 µM each time. For the same compound, the IC50 at Lck and on Itk was greater than 16.5 µM in each case.
For the compound `COc1cc(Nc2ncnc(N3CCc4ccccc4C3)n2)cc(OC)c1OC` [Compound 326], the IC50 on Kdr, at AKT, at EGFR, against IGFR-1, at c-Met and at Zap-70 was greater than 11.4 µM each time. For the same compound, the IC50 at Lck and on Itk was greater than 11.4 µM each time.
For `NC(=O)c1cccc(Nc2ncnc(-c3ccccc3)n2)c1` [Compound 151], the IC50 at Kdr was 12 to 15.4 µM; on AKT, greater than 15.4 µM; at EGFR, greater than 15.4 µM; against IGFR-1, greater than 15.4 µM; at c-Met, greater than 15.4 µM; on Zap-70, greater than 15.4 µM. Also, the IC50 on Lck and on Itk was greater than 15.4 µM throughout.
On to `COc1cc(Nc2ncnc(-n3c(NCCCCO)nc4ccccc43)n2)cc(OC)c1OC` [Compound 392], for which the IC50 at Kdr was 0.859 to 5.16 µM; on AKT, greater than 9.67 µM; at EGFR, greater than 9.67 µM; on IGFR-1, greater than 9.67 µM; at c-Met it was greater than 9.67 µM; on Zap-70, greater than 9.67 µM. Further, the IC50 is 5.16 to 7.52 µM at Lck and greater than 9.67 µM at Itk.
Turning to `CC(=O)Nc1ccc(Nc2ncnc(-c3cccs3)n2)cc1` [Compound 355], the IC50 on Kdr, on AKT, on EGFR, on IGFR-1, at c-Met and on Zap-70 was greater than 14.5 µM in each case. Also, the IC50 on Lck and on Itk was greater than 14.5 µM in each case.
As to `COc1cc(Nc2ncnc(Nc3cc(C)nn3C)n2)cc(OC)c1OC` [Compound 393], the IC50 at Kdr was > 12.1 µM and 6.46 to 9.42 µM; on AKT, greater than 12.1 µM; on EGFR, 9.42 to 12.1 µM and > 12.1 µM; at IGFR-1, greater than 12.1 µM; on c-Met, greater than 12.1 µM; at Zap-70 it was greater than 12.1 µM. Moreover, the IC50 at Lck is 1.08 to 6.46 µM and > 12.1 µM; on Itk, greater than 12.1 µM.
